Assay results reported in ChEMBL document CHEMBL4251748, “Discovery of Cytochrome P450 4F11 Activated Inhibitors of Stearoyl Coenzyme A Desaturase” (J Med Chem, 2018).
pEC50: −log10 of the molar value.

Legend:
NCI-H2122 = experiment: Cytotoxicity against human NCI-H2122 cells incubated for 4 days; type: functional, cell-based; settings: NCI-H2122, 96 h
NCI-H1155 [1] = experiment: Cytotoxicity against human NCI-H1155 cells incubated for 4 days in presence of sodium oleate; type: functional, cell-based; settings: NCI-H1155, 96 h
NCI-H1155 [2] = experiment: Cytotoxicity against human NCI-H1155 cells expressing CYP4F11 incubated for 4 days; type: functional, cell-based; settings: NCI-H1155, 96 h
NCI-H1155 [3] = experiment: Cytotoxicity against human NCI-H1155 cells expressing pLVX empty vector incubated for 4 days; type: functional, cell-based; settings: NCI-H1155, 96 h
NCI-H1155 [4] = experiment: Cytotoxicity against human NCI-H1155 cells expressing CYP4F11 incubated for 4 days in presence of sodium oleate; type: functional, cell-based; settings: NCI-H1155, 96 h
[5] = molecular target: T1, Acyl-CoA desaturase 1 (Mus musculus) (UniProt P13516); experiment: Inhibition of SCD1 in CD1 mouse liver at 100 nM using stearoyl [9,10-3H] CoA as substrate and NADPH incubated for 2 hrs by scintillation counting method
T1 sequence (whole entry): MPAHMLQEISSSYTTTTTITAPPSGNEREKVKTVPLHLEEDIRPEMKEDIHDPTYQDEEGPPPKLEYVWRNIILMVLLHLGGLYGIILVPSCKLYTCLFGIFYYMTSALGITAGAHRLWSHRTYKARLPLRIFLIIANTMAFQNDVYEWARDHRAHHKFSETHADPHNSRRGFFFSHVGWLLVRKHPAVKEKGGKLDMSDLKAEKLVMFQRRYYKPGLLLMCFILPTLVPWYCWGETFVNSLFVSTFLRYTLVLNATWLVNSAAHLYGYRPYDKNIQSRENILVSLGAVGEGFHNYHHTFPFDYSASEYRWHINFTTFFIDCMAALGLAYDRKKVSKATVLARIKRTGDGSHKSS

Compound	pEC50 (NCI-H2122)	other results
COc1ccc(CCNC(=O)C(=O)Nc2ccc(Cl)c(C(F)(F)F)c2)cc1	5.85	
COc1ccc(CCNC(=O)C(=O)Nc2cc(Cl)cc(C(F)(F)F)c2)cc1	< 4.30	
COc1ccc(CCNC(=O)C(=O)Nc2cccc(C#N)c2)cc1	6.39	
COc1ccc(CCNC(=O)NC(=O)c2ccc(C(=O)N3CCCCC3)cc2)cc1	5.64	
COc1ccc(CCNC(=O)C(=O)Nc2ccc(Cl)c(C#N)c2)cc1	6.40	
COc1ccccc1CCNC(=O)C(=O)Nc1ccc(Cl)cc1	< 4.30	
COc1ccc(CCNC(=O)NC(=O)c2cccc(-c3ccccc3)c2)cc1	< 4.30	
COc1ccc(CCNC(=O)C(=O)Nc2ccc(Cl)c(F)c2)cc1	6.54	
COc1ccc(CCNC(=O)c2nc3ccccc3o2)cc1	4.52	
COc1ccc(CCNC(=O)C(=O)Nc2ccc(Cl)nc2)cc1	6.36	
COc1ccc(CCNC(=O)c2ccc(Cl)cc2)cc1	< 4.30	
COc1ccc(CCNC(=O)C(=O)Nc2ccccc2Br)cc1	< 4.30	
CCOc1cccc(NC(=O)C(=O)NCCc2ccc(OC)cc2)c1	4.62	
COc1ccc(CCNC(=O)C(=O)N2CCc3ccccc32)cc1	< 4.30	
COc1ccc(CCNC(=O)C(=O)Nc2cccnc2F)cc1	< 4.30	
COc1ccc(CCNC(=O)C(=O)Nc2cncc(C)c2)cc1	5.59	
COc1ccc(CCNC(=O)C(=O)Nc2cncc(Cl)c2)cc1	5.23	
COc1ccc(CCNC(=O)NC(=O)c2ccc(C(=O)c3ccccc3)cc2)cc1	6.96	
COc1ccc(CCNC(=O)C(=O)N2Cc3ccccc3C2)cc1	< 4.30	
COc1ccc(CCNC(=O)C(=O)Nc2ccc(C(=O)c3ccc(O)cc3)cc2)cc1	< 4.30	
COc1ccc(CCN(C)C(=O)N(C)C(=O)c2ccc(C(=O)c3ccccc3)cc2)cc1	4.80	
COc1ccc(CCNC(=O)C(=O)O)cc1	< 4.30	
COc1ccc(CCNC(=O)C(=O)Nc2ccc(Cl)c([N+](=O)[O-])c2)cc1	5.89	
COc1ccc(CCNC(=O)C(=O)N2CCCC2)cc1	< 4.30	
COc1ccc(CCNC(=O)C(=O)Nc2ccccc2OC)cc1	< 4.30	

Compound	pEC50 (NCI-H2122)	other results
COc1ccc(CCNC(=O)C(=O)Nc2ccc(C)c(F)c2)cc1	6.51	
COc1ccc(CCNC(=O)COc2ccc(Cl)cc2)cc1	< 4.30	
O=C(NCCc1ccc(Cl)cc1)C(=O)Nc1ccc(Cl)cc1	< 4.30	
COc1ccc(CCNC(=O)C(=O)Nc2cnccn2)cc1	< 4.30	
COc1ccc(CCNC(=O)C(=O)Nc2cccc(Br)n2)cc1	< 4.30	
COc1ccc(CC(C)NC(=O)C(=O)Nc2ccc(Cl)cc2)cc1 (stereo not drawn)	5.45	pEC50 (NCI-H1155 [1]): 4.92; pEC50 (NCI-H1155 [2]): 4.79; pEC50 (NCI-H1155 [3]): 5.02; pEC50 (NCI-H1155 [4]): 5.12
COc1ccc(CCNC(=O)NC(=O)c2ccc(C(=O)N3CCOCC3)cc2)cc1	< 4.30	
CC(CNC(=O)C(=O)Nc1ccc(Cl)cc1)c1ccc(O)cc1 (stereo not drawn)	5.40	inhibition [5]: 28%; pEC50 (NCI-H1155 [1]): < 4.30; pEC50 (NCI-H1155 [2]): < 4.30; pEC50 (NCI-H1155 [3]): < 4.30; pEC50 (NCI-H1155 [4]): < 4.30
COc1ccc(CCNC(=O)NC(=O)c2ccc(C(=O)O)cc2)cc1	< 4.30	
COc1ccc(CCNC(=O)C(=O)NC2CCC2)cc1	< 4.30	
COc1ccc(CCNC(=O)c2ccc3ccccc3n2)cc1	< 4.30	pEC50 (NCI-H1155 [1]): < 4.30; pEC50 (NCI-H1155 [2]): < 4.30; pEC50 (NCI-H1155 [3]): < 4.30; pEC50 (NCI-H1155 [4]): < 4.30
COc1ccc(CCNC(=O)NC(=O)c2ccc(C(=O)c3ccccc3C)cc2)cc1	6.49	
COc1ccc(CCNC(=O)C(=O)Nc2ccccn2)cc1	< 4.30	
COc1ccc(CCNC(=O)C(=O)Nc2ccc(Br)cn2)cc1	6.54	
COc1ccc(CCNC(=O)c2cnc3ccccc3n2)cc1	< 4.30	
COc1ccc(CCCCNC(=O)c2ccc(Cl)cc2)cc1	5.49	
COc1ccc(CCNC(=O)C(=O)Nc2ccc(Cl)cn2)cc1	6.46	
O=C(NCCc1ccc(O)cc1)c1ccc2ccccc2n1	< 4.30	inhibition [5]: 31%; pEC50 (NCI-H1155 [1]): 4.34; pEC50 (NCI-H1155 [2]): 4.77; pEC50 (NCI-H1155 [3]): 4.74; pEC50 (NCI-H1155 [4]): 4.46
COc1ccc(CCNC(=O)C(=O)Nc2ccc(C(=O)c3ccc(OC)cc3)cc2)cc1	7.09	
COc1ccc(CCNC(=O)c2ccc3cccc(O)c3n2)cc1	4.52	
O=C(NCCc1ccccc1O)C(=O)Nc1ccc(Cl)cc1	5.76	
COc1ccc(CCNC(=O)NC(=O)c2ccc(Cl)cc2)cc1	6.82	
COc1ccc(CCNC(=O)C(=O)NCc2ccc(Cl)cc2)cc1	< 4.30	
COc1ccc(CCNC(=O)C(=O)Nc2ccc(C)c(Cl)c2)cc1	6.22	
COc1ccc(CCNC(=O)C(=O)Nc2cc(F)cc(Cl)c2)cc1	< 4.30	

Compound	pEC50 (NCI-H2122)	other results
O=C(NCCc1ccccc1)C(=O)Nc1ccc(Cl)cc1	< 4.30	
CC(Cc1ccc(O)cc1)NC(=O)C(=O)Nc1ccc(Cl)cc1 (stereo not drawn)	5.29	inhibition [5]: 24%; pEC50 (NCI-H1155 [1]): 5.00; pEC50 (NCI-H1155 [2]): 4.95; pEC50 (NCI-H1155 [3]): 4.93; pEC50 (NCI-H1155 [4]): 4.89
COc1ccc(CCNC(=O)N(C)C(=O)c2ccc(C(=O)c3ccccc3)cc2)cc1	5.21	
COc1ccc(CCNC(=O)C(=O)Nc2ccc(C#N)cc2)cc1	6.15	
COc1ccc(CCNC(=O)C(=O)Nc2cnccc2C)cc1	< 4.30	
O=C(NCCc1ccc(F)cc1)C(=O)Nc1ccc(Cl)cc1	4.32	
COc1cccc(CCNC(=O)C(=O)Nc2ccc(Cl)cc2)c1	< 4.30	
COc1ccc(CCNC(=O)C(=O)Nc2ccc(C)c(OC)c2)cc1	< 4.30	
COc1ccc(CCNC(=O)CNc2ccc(Cl)cc2)cc1	< 4.30	
COc1ccc(CCNC(=O)NC(=O)c2cccc(Br)c2)cc1	< 4.30	
COc1ccc(CCCNC(=O)c2ccc(Cl)cc2)cc1	< 4.30	
COc1ccc(CCNC(=O)c2ccc3ccccc3c2O)cc1	4.44	
COc1ccc(CCNC(=O)c2nc3ccccc3[nH]2)cc1	< 4.30	
COc1ccc(CCNC(=O)c2nc3ccccc3c(=O)[nH]2)cc1	< 4.30	
COc1ccc(CCNC(=O)NC(=O)c2ccc(C(O)c3ccccc3)cc2)cc1 (stereo not drawn)	7.01	
COc1ccc(CCNC(=O)C(=O)Nc2ccncc2)cc1	< 4.30	
COc1ccc(CCNC(=O)C(=O)Nc2ccc(Cl)cc2)cc1OC	< 4.30	
COc1ccc(CCNC(=O)C(=O)NC2CCCCC2)cc1	< 4.30	
COc1ccc(CCNC(=O)C(=O)Nc2ccccc2)cc1	6.34	
COc1ccc(CCNC(=O)C(=O)NC2CCCCCC2)cc1	< 4.30	
O=C(NCCc1ccc(O)cc1)C(=O)NC1CC1	< 4.30	inhibition [5]: 0%; pEC50 (NCI-H1155 [1]): < 4.30; pEC50 (NCI-H1155 [2]): < 4.30; pEC50 (NCI-H1155 [3]): < 4.30; pEC50 (NCI-H1155 [4]): < 4.30
COc1ccc(CCNC(=O)C(=O)Nc2cc(Cl)cc(Cl)c2)cc1	< 4.30	
COc1ccc(CCNC(=O)C(=O)Nc2cccc(Cl)c2)cc1	6.42	
COc1ccc(CCNC(=O)C(=O)Nc2cccc(F)n2)cc1	< 4.30	
COc1ccc(C(C)CNC(=O)C(=O)Nc2ccc(Cl)cc2)cc1 (stereo not drawn)	5.44	pEC50 (NCI-H1155 [1]): < 4.30; pEC50 (NCI-H1155 [2]): < 4.30; pEC50 (NCI-H1155 [3]): < 4.30; pEC50 (NCI-H1155 [4]): < 4.30

Compound	pEC50 (NCI-H2122)	other results
COc1ccc(CCNC(=O)NC(=O)c2ccc(Br)cc2)cc1	6.80	
COc1ccc(CCNC(=O)NC(=O)c2ccc(C(N)c3ccccc3)cc2)cc1 (stereo not drawn)	6.49	
COc1ccc(CCNC(=O)NC(=O)c2ccc(-c3ccccc3)cc2)cc1	6.77	
COc1ccc(CCNC(=O)NC(=O)c2ccc(OCc3ccccc3)cc2)cc1	7.51	
COc1ccc(CCNC(=O)C(=O)NC2CCCC2)cc1	< 4.30	
COC(=O)c1ccc(C(=O)NC(=O)NCCc2ccc(OC)cc2)cc1	< 4.30	
COc1ccc(CCNC(=O)C(=O)Nc2ccc(F)cc2)cc1	6.54	
Cc1ccccc1C(=O)c1ccc(C(=O)NC(=O)NCCc2ccc(O)cc2)cc1	5.82	inhibition [5]: 57%
COc1ccc(CCNC(=O)C(=O)Nc2ccc(C(=O)c3ccccc3)cc2)cc1	7.07	
COc1ccc(CCNC(=O)NC(=O)c2ccc(Oc3ccccc3)cc2)cc1	7.51	
COc1ccc(CCNC(=O)C(=O)Nc2ccc(OC)c(C)c2)cc1	6.09	
COc1ccc(CCNC(=O)C(=O)Nc2ccccc2F)cc1	< 4.30	
COc1ccc(CCNC(=O)C(=O)NCCc2ccc(OC)cc2)cc1	< 4.30	
COc1ccc(CCN(C)C(=O)NC(=O)c2ccc(C(=O)c3ccccc3)cc2)cc1	5.06	
CCOc1ccc(CCNC(=O)C(=O)Nc2ccc(Cl)cc2)cc1	< 4.30	
O=C(NCCc1ccc(Br)cc1)C(=O)Nc1ccc(Cl)cc1	< 4.30	
COc1ccc(CCN(C)C(=O)C(=O)Nc2ccc(Cl)cc2)cc1	4.98	
O=C(NCCc1cccc(O)c1)C(=O)Nc1ccc(Cl)cc1	5.62	
COc1ccc(CCNC(=O)C(=O)N2CCc3ccccc3C2)cc1	< 4.30	
COc1ccc(CCNC(=O)Nc2ccc(Cl)cc2)cc1	< 4.30	
COc1ccc(CCNC(=O)C(=O)N2CCCCC2)cc1	< 4.30	
COc1ccc(CCNC(=O)C(=O)Nc2ccc(Cl)c(Cl)c2)cc1	6.31	
COc1ccc(CCNC(=O)NC(=O)c2ccc(OC)cc2)cc1	6.00	
Cc1ccc(CCNC(=O)C(=O)Nc2ccc(Cl)cc2)cc1	< 4.30	
COc1ccc(CCNC(=O)C(=O)Nc2ccc(F)c(Cl)c2)cc1	6.13	
